# Laboratory results from patent USRE34313E, “Pharmaceutical compositions” (priority 1983, dated 1993).
# Where two headings read alike, the source gives them in different places.
# Columns and labels:
# Apotransferrin = assay: Ability of iron complexes to donate iron to apotransferrin; format: biochemical; details: complex 10^-4 M, apotransferrin 10^-4 M, tris hydrochloride pH 7.4, 37° C., 10 minutes
# Experimental: Apotransferrin (10^-4 M) and the iron complex of 1-hydroxy-4-methoxypyrid-4-one (10^-4 M; prepared as described in Example 7) were incubated together in tris hydrochloride (50 mM, buffered to pH 7.4) at 37° C. for 10 minutes when a 1 ml aliquot was removed from the medium and added to a PD10 colum. 0.5 ml fractions were collected directly into scintillation vials for counting.
# Mice = assay: In vivo test of iron binding capacity: excretion of 59Fe in iron-loaded mice; details: control = 100% excretion
# Experimental: Mice were injected intraperitoneally with iron dextran (2 mg) at weekly intervals over a four week period. Two weeks after the final injection, the mice were injected via the tail vein with ^59 Fe Lactoferrin (human lactoferrin, 1 mg per injection 2 μCi). The mice were then caged individually. After a ten day period, 1,4-hydroxypyrid-2-one was administered to groups of 8 mice at 10 mg per mouse either intraperitoneally or intragastrically (in each case 3 of the mice received only one dose whilst 5 received 2 doses at a 24 hour interval). The excretion of iron was recorded at either 12 or 24 hourly intervals over a three day period before and a two day period after administration of the compound. For comparative purposes, the procedure was repeated with a blank control and with desferrioxamine, also at 10 mg per mouse (the intraperitoneally treated mice receiving one dose of desferrioxamine and the intragastrically treated mice two doses at a 24 hour interval).
# The results are shown in Table 4, being given on the basis of the control representing 100% excretion, and illustrate the particular advantage of the pyridones as compared with desferrioxamine for oral administration. […] However, this is not the case here, the large SD values being a consequence of the large range among the positive responses.
# physchem = details: pH 7.4; for Partition coefficient Kpart, Iron complex [FeIII-(compound)3]: 100 uM; for logD at 100 µM: tris hydrochloride 20 mm
# Experimental: Acid washed glassware is used throughout and, following mixing of 5 ml of the 10^-4 M aqueous solution with 5 ml n-octanol for 1 minute, the aqueous n-octanol mixture is centrifuged at 1,000 g for 30 seconds. The two resulting phases are separated for a concentration determination by spectrophotometry on each. For the free hydroxypyridones, the range 220-340 nm is used for concentration determinations whilst for the iron complexes, the range […] is used.
# Human transferrin = assay: Mobilisation of iron from transferrin; format: biochemical; details: 4×10^-3 M compound, 59Fe(III) transferrin 10^-5 M; for Percentage of iron removed from transferrin, 6 hours: tris HCl pH 7.4, 6 hours; for Percentage of iron removed from transferrin, 24 hours: tris HCl pH 7.4, 24 hours
# Experimental: The solution was then dialysed against phosphate buffered saline for 24 hours. The ^59 Fe remaining in the dialysis tube was then […]. For comparative purposes, this procedure was repeated with desferrioxamine and EDTA.
# [1] = log Ksol, affinity for iron(III); format: physicochemical
# Excerpt: In order to solubilise iron(III) hydroxide, log Ksol must be greater than 0 and in order to remove iron from transferrin, log Ksol should be in excess of 6.0.
# Horse spleen ferritin [2] = assay: Mobilisation of iron from ferritin; format: biochemical; details: 3×10^-3 M pyridone, ferritin 10^-6 M, pH 7.4, dialysis
# Experimental: Horse spleen ferritin (Sigma) was without further purification and its iron content was estimated spectrophotometrically at 420 nm. The ferritin solution in phosphate buffered saline (Dulbecco-OXOID, 10^-6 M, pH 7.4) was enclosed in a Visking dialysis tube and dialysed against a 3×10^-3 M buffered solution of one of various pyridones as indicated in Table 2. The absorption spectrum of the resulting iron(III) complex in the dialysis solution was recorded after 6 and 24 hours. For comparative purposes, the procedure was repeated using a blank control.
# Horse spleen ferritin [3] = details: cited from earlier work
# inverted rat jejunal sac = assay: In vitro permeation of rat jejunal sac by iron complexes; details: uptake into serosal space of everted rat jejunal sac, 37° C., up to 1 hour, relative to ferric chloride as 1
# Experimental: The iron uptake into the serosal space of the inverted rat jejunal sac was compared for various iron compounds. Rats (male Sprague Dawley, 60 g) were killed and the jejunum removed, everted and cut into three segments (4 cm length). The segments were tied at both ends and filled with Krebs Ringer buffer (0.2 ml) and incubated in Krebs Ringer buffer containing ^59 Fe complexes at 37° C. for periods up to 1 hour. The contents of the sac were counted for ^59 Fe and measured spectrophotometrically.
Structure (SMILES),"Partition coefficient Kpart, Iron complex [FeIII-(compound)3] (physchem)",logD at 100 µM (physchem),"Percentage of iron removed from transferrin, 6 hours (Human transferrin) [%]","Percentage of iron removed from transferrin, 24 hours (Human transferrin) [%]",log Ksol [1],"Percentage of iron removed from ferritin, 6 hours (Horse spleen ferritin [2]) [%]","Percentage of iron removed from ferritin, 24 hours (Horse spleen ferritin [2]) [%]",also measured
COc1ccn([O-])c(=O)c1.COc1ccn([O-])c(=O)c1.COc1ccn([O-])c(=O)c1.[Fe+3],–,–,–,–,–,–,–,iron removed from the iron complex (donated to apotransferrin) (Apotransferrin): over 90%
"O=c1cc(O)ccn1O [1,4-dihydroxypyrid-2-one]",0.04,-1.4,80,91,9.9,22,54,"Excretion of 59Fe ± SD, Intraperitoneal Administration (Mice; 10 mg per mouse i.p.): 195 ± 57%; Excretion of 59Fe ± SD, Intragastric Administration (Mice; 10 mg per mouse intragastrically): 166 ± 40%"
COCCOc1ccn(O)c(=O)c1 [1-hydroxy-4-(2'-methoxyethoxy)-pyrid-2-one],0.6,-0.854,72,75,–,2,8,–
COc1ccn(O)c(=O)c1 [1-hydroxy-4-methoxypyrid-2-one],4.85,-0.824,70,71,11.3,13,46,–
"CC(=O)N(O)CCCCCNC(=O)CCC(=O)N(O)CCCCCNC(=O)CCC(=O)N(O)CCCCCN [Desferrioxamine, desferrioxamine, reference compound]",–,–,17,22,6.0,–,–,"Percentage of iron removed from ferritin, 6 hours (Horse spleen ferritin [3]; 1 mM desferrioxamine, similar test from literature (Crichton et al)): 1.5%"
"O=C(O)CN(CCN(CC(=O)O)CC(=O)O)CC(=O)O [EDTA, ethylenediamine tetra-acetic acid, reference compound]",–,–,27,67,–,–,–,–
"[Cl][Fe]([Cl])[Cl] [FeCl3, ferric chloride]",–,–,–,–,–,–,–,Relative Iron Uptake (inverted rat jejunal sac): 1
O=C([O-])[C@H](O)[C@@H](O)[C@H](O)[C@H](O)CO.O=C([O-])[C@H](O)[C@@H](O)[C@H](O)[C@H](O)CO.[Fe+2] [Fe^II gluconate],–,–,–,–,–,–,–,Relative Iron Uptake (inverted rat jejunal sac): 1.6
O=C(NCCCCN(CCCNC(=O)c1cc(S(=O)(=O)O)cc(O)c1O)C(=O)c1cc(S(=O)(=O)O)cc(O)c1O)c1cc(S(=O)(=O)O)cc(O)c1O [LICAMS],–,–,–,–,–,–,–,"Percentage of iron removed from ferritin, 6 hours (Horse spleen ferritin [3]; 6 mM LICAMS + 12 mM ascorbic acid, similar test from literature (Tufano et al)): 7%"
"O=C(O)CN(CCN(CC(=O)O)CC(=O)O)CCN(CC(=O)O)CC(=O)O [diethylenetriamine pentaacetic acid, reference compound]",–,–,–,–,2.0,–,–,–
